This note sets out measurements from patent publication US7659251B2, “Ligand for G-protein coupled receptor FPRL2” (priority 2004, dated 2010).

Experiment [1] concerns the target T1, FPRL2 (Homo sapiens, UniProt P25089).
T1 sequence (P25089 1-353): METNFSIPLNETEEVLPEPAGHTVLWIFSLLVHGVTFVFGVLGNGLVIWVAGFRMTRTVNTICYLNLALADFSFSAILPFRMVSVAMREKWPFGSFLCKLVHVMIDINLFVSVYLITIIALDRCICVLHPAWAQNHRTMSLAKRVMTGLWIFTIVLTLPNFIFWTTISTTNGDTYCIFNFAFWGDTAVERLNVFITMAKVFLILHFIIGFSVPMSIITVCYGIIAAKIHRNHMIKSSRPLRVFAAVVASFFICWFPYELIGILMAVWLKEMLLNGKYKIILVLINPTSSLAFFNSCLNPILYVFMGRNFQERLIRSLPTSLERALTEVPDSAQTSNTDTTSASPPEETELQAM
Put plainly: Saturation and competition binding on FPRL2-expressing CHO-K1 cells, tracer F2L-[125I]Tyr. More on the design: expressed in transfected cells; host or cells: CHO-K1. The conditions noted are these: for competition for FPRL2 binding: up to concentrations of 3 μM, data not shown. Here is the method:
FPRL2, FPRL1 and FPR-expressing CHO-K1 cells were plated in 24 wells plates (200,000 cells per well for FPRL2, and 100,000 cells per well for the two other receptors). The next day, the cells were washed twice with a KRH buffer containing 280 mM saccharose and, for FPRL1 and FPR, 0.1 % NaN3. […] Cells were washed twice with ice cold buffer, total radioactivity was recovered with 1 M […] and counted in a gamma counter for […]

Experiment [2] addresses T1, FPRL2. Put plainly: Aequorin-based assay on CHO-K1 cells expressing FPRL2, apoaequorin and Galpha16. Format: cell-based. More on the design: expressed in transfected cells; host or cells: CHO-K1 (with or without Galpha16 and apoaequorin). The settings on record: for concentrations required to activate FPRL2 (calcium): FPRL2-expressing CHO-K1 cells. Here is the method:
Briefly, FPRL2 polypeptide-expressing clones are transfected to coexpress mitochondrial apoaequorin and Gα16. Cells are incubated with 5 μM Coelenterazine H (Molecular Probes) for 4 hours at room temperature, washed in DMEM-F12 culture medium and resuspended at a concentration of 0.5×10^6 cells/ml. Cells are then mixed with test agonist molecules and light emission by the aequorin is recorded with a luminometer for 30 sec. Results are expressed as Relative Light Units (RLU). Controls include assays using membranes isolated from cells not expressing FPRL2 polypeptide (mock transfected), in order to exclude possible non-specific effects of the candidate compound.
FPRL2 expressing clones have been obtained by transfection of CHO-K1 cells to coexpressing mitochondrial apoaequorin and Galpha16, limiting dilution and selection by northern blotting. Positive clones were used for screening with porcine spleen extracts prepared as described above. […] Briefly, cells were collected from plates in PBS containing 5 mM EDTA, pelleted and resuspended at 5×10^6 cells/ml in DMEM-F12 medium. Cells were incubated with 5 μM Coelenterazine H (Molecular Probes) for 4 hours at room temperature. Cells were then washed in DMEM-F12 medium and resuspended at a concentration of 0.5×10^6 cells/ml. Cells were then mixed with test agonist peptides or plates containing tissue extracts and the light emission was recorded for 30 sec using a Microlumat luminometer (Perlin Elmer). Results are expressed as Relative Light Units (RLU).
(§1) The human coding sequences (accession numbers AC005946, M84562 and M60626, respectively) were amplified by PCR from human genomic DNA, cloned into the pcDNA3 (Invitrogen) and pEFIN3 (Euroscreen) vectors and sequenced. The pEFIN3 constructs were transfected, using Fugene 6, into CHO-K1 cells, expressing or not Gα16 and apoaequorin. G418-resistant clones were characterized for receptor expression by Northern blotting. […] Results were expressed as relative light units (RLU) or as the percentage of the response to 20 μM ATP.
The cAMP concentrations were determined using a homogeneous time-resolved fluorescence (HTRF) kit (Cis Bio International). Briefly, cells were detached, resuspended in Krebs Ringer Hepes buffer containing 1 mM 3-Isobutyl-1-methylxanthine, and submitted to 10 μM forskolin, alone or together with increasing concentrations of agonists for 30 min at room temperature. The reaction was stopped by the successive addition of cAMP-XL665 and anti-cAMP cryptate diluted in lysis buffer. The plates were incubated for 60 min at room temperature and read on a Rubystar fluorimeter (BMG). […] A calibration curve was obtained by plotting delta F % versus cAMP concentrations. […] The aequorin-based assay was performed with or without overnight pretreatment with 100 ng/ml Pertussis toxin. […] For FPRL2 polymorphism analysis, HEK cells were transiently transfected with empty and wild-type or Asp338H is FPRL2-containing pcdna vector using calcium phosphate method. Cells were recovered 48 hours later and used for FACS or cAMP experiments.

The target of the next experiment is T2, FPR (Homo sapiens, UniProt P21462, E346A/V101L).
T2 construct: expressed in transfected cells; host or cells: CHO-K1 (with or without Galpha16 and apoaequorin)
T2 sequence (P21462 1-350 V101L/E346A): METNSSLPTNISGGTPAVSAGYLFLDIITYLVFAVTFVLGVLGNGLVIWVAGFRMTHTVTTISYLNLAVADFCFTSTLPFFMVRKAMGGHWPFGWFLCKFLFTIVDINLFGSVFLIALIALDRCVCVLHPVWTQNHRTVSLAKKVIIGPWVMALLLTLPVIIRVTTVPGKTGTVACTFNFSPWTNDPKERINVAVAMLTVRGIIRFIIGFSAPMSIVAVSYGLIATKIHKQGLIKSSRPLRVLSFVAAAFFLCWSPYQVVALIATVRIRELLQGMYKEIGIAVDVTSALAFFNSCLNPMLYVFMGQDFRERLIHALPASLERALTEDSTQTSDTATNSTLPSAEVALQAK
Put plainly: Aequorin-based assay on CHO-K1 cells expressing FPR. The settings on record: FPR expressed in CHO-K1 cells. It is filed as cell-based.
Description: as §1

The target in experiment [3] is T3, FPRL1 (Homo sapiens, UniProt P25090).
T3 construct: expressed in transfected cells; host or cells: CHO-K1 (with or without Galpha16 and apoaequorin)
T3 sequence (P25090 1-351): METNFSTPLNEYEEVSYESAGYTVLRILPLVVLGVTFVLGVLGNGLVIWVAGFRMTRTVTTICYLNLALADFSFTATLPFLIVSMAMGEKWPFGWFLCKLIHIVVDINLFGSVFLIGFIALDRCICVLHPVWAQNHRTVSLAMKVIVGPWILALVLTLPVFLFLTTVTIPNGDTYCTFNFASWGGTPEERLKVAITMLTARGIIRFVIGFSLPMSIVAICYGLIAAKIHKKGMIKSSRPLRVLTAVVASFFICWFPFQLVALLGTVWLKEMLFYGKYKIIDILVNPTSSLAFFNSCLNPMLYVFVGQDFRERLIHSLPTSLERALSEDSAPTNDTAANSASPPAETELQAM
The experiment is described as follows: Aequorin-based assay on CHO-K1 cells expressing FPRL1. It is filed as cell-based. The settings on record: FPRL1 expressed in CHO-K1 cells.
Description: as §1

The target of experiment [4] is T1, FPRL2. Put plainly: Aequorine assay on human FPRL2 expressing cells (Example 9). Format: cell-based. More on the design: expressed in transfected cells; host or cells: CHO-K1 (with or without Galpha16 and apoaequorin). The conditions noted are these: peptides 2.5 μM to 0.4 nM, Mab 500 ug/ml to 5 ug/ml; FIG. 15. How it is done: (§2) Functional responses were analyzed by recording the luminescence of aequorine in human FPRL2 and FPRL1 expressing cells following the addition of agonists or purified monoclonal antibodies.
(§3) In brief, cells were collected from plates with PBS containing 5 mM EDTA, pelleted, resuspend at 5×10^6 cells/ml in DMEM/F-12 medium containing 0.1% bovine serum albumin, incubated with 5 μM coelenterazine H (molecular probes, Inc. Eugene, Oreg.) for 4 h at room temperature and diluted in DMEM/F-12 medium at a concentration of 5×10^5 cells/ml. Cells where then mixed in an 96 wells plate with the ligands or purified monoclonal antibodies. The light emission was recorded over 60 sec using a microlumat Luminometer (EG&G Berthold, microplate luminometer LB 96V).
(§4) Each data point is in duplicate. […] Human FPRL1 expressing cells were used as negative control to Mab. Functionality of these cells has been control with Humanin.

Experiment [5] deals with T3, FPRL1. The experiment is described as follows: Aequorine assay on human FPRL1 expressing cells (Example 9). The conditions noted are these: data not shown. Format: cell-based. Here is the method:
as §2, §3, §4

With `CSCC[C@H](NC=O)C(=O)N[C@@H](CC(C)C)C(=O)N[C@@H](Cc1ccccc1)C(=O)O` [FMLP, formyl-methionine-leucyl-phenylalanine], the “competition for FPRL2 binding” value on FPRL2 [1] is listed as “did not compete”. At FPRL2 [2] (FPRL2-expressing cells), the “activity on FPRL2” value was “inactive”.
For `CSCC[C@H](NC(=O)[C@@H](NC(=O)[C@H](CCSC)NC(=O)[C@H](Cc1ccc(O)cc1)NC(=O)[C@H](CCCCN)NC(=O)[C@@H](N)Cc1c[nH]c2ccccc12)C(C)C)C(N)=O` [WKYMVM], on FPR, the “concentrations active on FPR” value is “low nanomolar concentrations”. For the same compound, the “competition for FPRL2 binding” value on FPRL2 [1] is reported as “did not compete”. Moreover, the “concentrations required to activate FPRL2 (calcium)” value at FPRL2 [2] was “micromolar concentrations”. Also, on FPRL1 [3], the “concentrations active on FPRL1” value is reported as “low nanomolar concentrations”.
As for `CSCC[C@H](NC(=O)[C@H](Cc1ccc(O)cc1)NC(=O)[C@H](CCCCN)NC(=O)[C@@H](N)Cc1c[nH]c2ccccc12)C(=O)N[C@H](C(=O)N[C@H](CCSC)C(N)=O)C(C)C` [WKYMVm], at FPR, the “concentrations active on FPR” value is recorded as “low nanomolar concentrations”. The “competition for FPRL2 binding” value at FPRL2 [1] is “did not compete”. On FPRL2 [2], the “concentrations required to activate FPRL2 (calcium)” value was “micromolar concentrations”. At FPRL1 [3], the “concentrations active on FPRL1” value is “low nanomolar concentrations”.
Regarding “Humanin: Humanin (HN(N)) peptide (Phoenix Pharmaceuticals), disclosed as a ligand for FPRL2 and FPRL1 [reference compound]”, in the experiment with FPRL2 [4], the “activation of human FPRL2 expressing cells” value is “activates”. The “activation of human FPRL1 expressing cells” value with FPRL1 [5] was “activates”.
Consider “NSLFGSVETWPWQVL [F2L[7-21], truncated F2L variant lacking the first six aminoacids]”, for which the “activity in binding assay” value with FPRL2 [1] (not shown) was “totally inactive”. The “activity in aequorin assay” value with FPRL2 [2] (FIG. 11H) was “totally inactive”.
For the compound Pertussis toxin, the “effect of pretreatment on F2L calcium signaling” value at FPRL2 [2] (100 ng/ml overnight pretreatment, FIG. 11G) was “totally inhibited”.
